# According to PubChem BioAssay (NCI):
# Where “and” joins values, the source holds several entries; their conditions need not be identical. Identical values can stand only once.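 Protocol summary: plate cells (96-well), add compound at 5 concentrations, incubate 48 h, interpolate endpoints linearly. GI50: concentration for 50% inhibition of growth. Definition used: TGI = concentration required for complete inhibition of growth.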
# Legend:
# Assay in all cases: DTP human tumour cell line panel, 48 h
# DLD-1 colon = tested on: DLD-1 colon
# DMS 273 small cell lung = tested on: DMS 273 small cell lung
# HOP-18 NSCLC = tested on: HOP-18 NSCLC
# KM20L2 colon = tested on: KM20L2 colon
# RPMI-8226 leukemia = tested on: RPMI-8226 leukemia
# SW-620 colon = tested on: SW-620 colon
# U251 CNS = tested on: U251 CNS
# MCF7 breast = tested on: MCF7 breast
# MDA-MB-231 breast = tested on: MDA-MB-231 breast
# T-47D breast = tested on: T-47D breast
Compound,TGI (DLD-1 colon),TGI (DMS 273 small cell lung),TGI (HOP-18 NSCLC),TGI (KM20L2 colon),TGI (RPMI-8226 leukemia),TGI (SW-620 colon),TGI (U251 CNS),TGI (MCF7 breast),TGI (MDA-MB-231 breast),TGI (T-47D breast),GI50 (DLD-1 colon),GI50 (DMS 273 small cell lung),GI50 (HOP-18 NSCLC),GI50 (KM20L2 colon),GI50 (MCF7 breast),GI50 (MDA-MB-231 breast),GI50 (RPMI-8226 leukemia),GI50 (SW-620 colon),GI50 (T-47D breast),GI50 (U251 CNS)
O=C1[C@@H]2C3SC(c4ccccc43)[C@@H]2C(=O)N1c1ccccc1,> 100 µM,> 100 µM,> 100 µM,> 100 µM,> 100 µM,> 100 µM,> 100 µM,–,–,–,–,–,–,–,–,–,–,–,–,–
CC[N+]1(C)CCC(O)(c2ccccc2)C(C(=O)c2ccccc2)C1 (stereo not drawn),27.2 µM,47.1 µM,31 µM,44.5 µM,6.37 µM,4.58 µM,43.2 µM,9.6 µM,42.7 µM,39.7 µM,–,–,–,–,–,–,–,–,–,–
NCCCC1NC(=O)/C(=C(O)/C=C/C2CCC[C@@H]2CC2SCCS2)C1=O (stereo partly drawn),> 100 µM,> 100 µM,> 100 µM,> 100 µM,> 100 µM,> 100 µM,> 100 µM,–,–,–,–,–,–,–,–,–,–,–,–,–
CCc1ccc(Nc2cc(=O)[nH]c(=S)n2C)cc1,> 100 µM,> 100 µM,> 100 µM,> 100 µM,> 100 µM,> 100 µM,> 100 µM,–,–,–,–,–,–,–,–,–,–,–,–,–
C/C(=N\NC(=O)c1ccccc1O)c1cccc(/C(C)=N/NC(=O)c2ccccc2O)n1,> 100 µM,> 100 µM,39.4 µM,> 100 µM,> 100 µM,> 100 µM,15.8 µM and > 100 µM,> 100 µM,> 100 µM,> 100 µM,2.62 µM,20.4 µM,1.84 µM,1.13 µM,7.8 µM,10.6 µM,> 100 µM,0.632 µM,2.3 µM,2.02 µM and 0.502 µM
Nc1ncnc2c(C3OC(CO)C(O)C3O)[nH]nc12 (stereo not drawn),10.8 µM,1.58 µM,0.144 µM,8.26 µM,3.96 µM,3.31 µM and 9.17 µM,25.4 µM,–,0.0705 µM,1.57 µM,–,–,–,–,–,0.0218 µM,–,0.0592 µM,0.0308 µM,1.39 µM
Nc1ccc2c(c1)CC1c3ccccc3C(C2)c2ccccc21,> 100 µM,> 100 µM,> 100 µM,> 100 µM,> 100 µM,> 100 µM,> 100 µM,–,–,–,–,–,–,–,–,–,–,–,–,–
CCC[CH2][Ge]([CH2]CCC)([CH2]CCC)[O]C(=O)C(OC)c1ccccc1 (stereo not drawn),> 100 µM,> 75.9 µM,> 100 µM,> 100 µM,14.6 µM,> 100 µM,> 100 µM,–,–,–,23.7 µM,17.6 µM,> 100 µM,17.2 µM,–,–,0.255 µM,47.3 µM,–,31.4 µM
CN(C)CC/C(=N\Nc1ccc(Cl)c(Cl)c1)c1ccccc1,10 µM,3.23 µM,5.76 µM,3.17 µM,6.73 µM,3.68 µM,3.28 µM,–,–,–,–,–,–,–,–,–,–,–,–,–
COc1c(NC(=O)CC(C)=O)[c]([Hg][O]C(C)=O)c(OC)c(Cl)[c]1[Hg][O]C(C)=O,32.6 µM,31.9 µM,26.5 µM,28.5 µM,63.5 µM,20.8 µM,23.2 µM,–,–,–,14.2 µM,16.4 µM,13.6 µM,14.6 µM,–,–,17.5 µM,7.62 µM,–,10.1 µM
COc1cc(C(=O)C/C(CCC(=O)Nc2ccc(Cl)cc2Cl)=N/NC(=O)C(N)=O)ccc1O,> 100 µM,> 100 µM,> 100 µM,> 100 µM,> 100 µM,> 100 µM,> 100 µM,–,–,–,–,–,–,–,–,–,–,–,–,–
CCOC(=O)N1N=NC2C3OC(C[C@@]3(C#N)OC(C)=O)[C@H]21 (stereo partly drawn),> 100 µM,> 100 µM,> 100 µM,> 100 µM,> 100 µM,> 100 µM,> 100 µM,–,–,–,–,–,–,–,–,–,–,–,–,–
Cc1c(C(=O)/C=C/c2ccccc2Cl)[n+](=O)c2ccccc2n1[O-],19.8 µM,27.9 µM,28.2 µM,30.6 µM,36.1 µM,24 µM,27.4 µM,–,–,–,–,–,–,–,–,–,–,–,–,–
CC1(O)CC2(O)C=CC3=C(C(=O)c4cccc(O)c4C3=O)C2(O)C(=O)C1O (stereo not drawn),2.31 µM,16.1 µM,3.09 µM,2.71 µM,4.66 µM,1.67 µM,9.81 µM,2.6 µM,11.8 µM,3.51 µM,–,–,–,–,–,–,–,–,–,–
CCC[CH2][Ge]([CH2]CCC)([CH2]CCC)[O]C(=O)C(O)c1ccccc1 (stereo not drawn),21.9 µM,11.9 µM,51 µM,22 µM,42.2 µM,20.4 µM,20.3 µM,–,–,–,1.99 µM,1.2 µM,18.5 µM,2.18 µM,–,–,0.641 µM,4.09 µM,–,2.32 µM
CC(=O)OCC1OC(n2c(=O)n(-c3ccccc3)c(=O)c3cc(Br)cc(Br)c32)C(OC(C)=O)C(OC(C)=O)C1OC(C)=O (stereo not drawn),> 100 µM,> 100 µM,> 100 µM,> 100 µM,> 100 µM,> 100 µM,> 100 µM,–,–,–,–,–,–,–,–,–,–,–,–,–
Cc1ccccc1-c1c(N)nc(N)nc1C(=O)Nc1nccs1,> 100 µM,> 100 µM,> 100 µM,> 100 µM,> 100 µM,> 100 µM,> 100 µM,–,–,–,–,–,–,–,–,–,–,–,–,–
CCC1(C(=O)OC)CCc2c(OC)ccc(OC)c2C1=O (stereo not drawn),> 100 µM,> 100 µM,> 100 µM,> 100 µM,> 100 µM,> 100 µM,> 100 µM,–,–,–,–,–,–,–,–,–,–,–,–,–
O=C(CC(=O)Nc1ccccc1O)Nc1ccccc1O,40.3 µM,> 100 µM,34.2 µM,> 100 µM,44.2 µM,17.1 µM,> 100 µM,–,–,–,–,–,–,–,–,–,–,–,–,–
COc1cc(/C=C/c2ccc(OC(C)=O)cc2)cc(OC)c1OC,> 100 µM,> 100 µM,> 100 µM,> 100 µM,68.6 µM,> 100 µM,> 100 µM,–,–,–,–,–,–,–,–,–,–,–,–,–
CC(=O)OC1C/C(C)=C/CCC(C)/C=C/C2(C)CCC(C(C)(C)O)C12 (stereo not drawn),> 100 µM,> 100 µM,> 100 µM,> 100 µM,71.7 µM,> 100 µM,> 100 µM,–,–,–,–,–,–,–,–,–,–,–,–,–
